Counter-ions that a name gives are not always drawn.
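Further: Luminescence-based viability readout, five doses per compound, normalized against on-plate DMSO and empty-well controls, followed by dose-response curve fitting for every drug.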

The assay has as its system HCT116. Description: efficacy (fitted maximal change in viability relative to DMSO control); higher = less cytotoxic (negative = loss of viability). Conditions: 48 h.
For the molecule `CC(C)OC(=O)C(C)(C)Oc1ccc(C(=O)c2ccc(Cl)cc2)cc1` [Fenofibrate], the efficacy was -34.6%.
The result for `Oc1ccc(C2CNCCc3c2cc(O)c(O)c3Cl)cc1` (stereo not drawn) [Fenoldopam] reads -23.6%; that for `CC(C)(C)NC(=O)[C@H]1CC[C@H]2[C@@H]3CC[C@H]4NC(=O)\C=C/[C@]4(C)[C@H]3CC[C@]12C` [Finasteride], -16.1%; that for `OC1=CC2=C(C=C1)C(=O)\C(=C(O2)\C3=CC(=C(O)C=C3)O)O` [Fisetin], -56.3%.
The value for `O=C(NCC1CCCCN1)c1cc(OCC(F)(F)F)ccc1OCC(F)(F)F` (stereo not drawn) [Flecainide acetate] was -24.2%; that for `NC/1=N/C(=O)N/C=C1F` [Flucytosine] was -10.7%; that for `CC1(C)O[C@@H]2C[C@H]3[C@@H]4C[C@H](F)C/5=C/C(=O)/C=C\[C@]5(C)[C@@]4(F)[C@@H](O)C[C@]3(C)[C@@]2(O1)C(=O)CO` [Fluocinolone acetonide] was -10.6%.
As for `CC(=O)OCC(=O)[C@@]12OC(C)(C)O[C@@H]1C[C@H]3[C@@H]4C[C@H](F)C/5=C/C(=O)/C=C\[C@]5(C)[C@@]4(F)[C@@H](O)C[C@]23C` [Fluocinonide], the efficacy was -12.9%.
For the molecule `CCOC(=O)Nc1ccc(NCc2ccc(F)cc2)nc1N` [Flupirtine maleate], the efficacy worked out at 8.9%.
The result for `CC(C(=O)O)c1ccc(-c2ccccc2)c(F)c1` (stereo not drawn) [Flurbiprofen] reads -9.87%; that for `CC(C)C(=O)Nc1ccc([N+](=O)[O-])c(C(F)(F)F)c1` [Flutamide], -14.3%.
The result for `CCC(=O)O[C@@]1([C@H](C)C[C@H]2[C@@H]3C[C@H](F)\C4=C\C(=O)\C=C/[C@]4(C)[C@@]3(F)[C@@H](O)C[C@]12C)C(=O)SCF` [Fluticasone propionate] reads -11.6%.
The value for `Cc1cn[nH]c1` [Fomepizole] was -18.8%.
`C[C@]12CCC(=O)C(O)=C1CC[C@@H]1[C@@H]2CC[C@]2(C)C(=O)CC[C@@H]12` [Formestane]: the efficacy was found to be 24.5%.
The result for `CCOP(=O)(OCC)C(C)NC(=O)N(CCCl)N=O` (stereo not drawn) [Fotemustine] reads 7.5%; that for `CNC(=O)c1c(C)oc2cc(Oc3ncnc4cc(OC)c(OC)cc34)ccc12` [Fruquintinib], -11.4%.
`C[C@]12CC[C@@H]3c4ccc(O)cc4C[C@@H](CCCCCCCCC[S+]([O-])CCCC(F)(F)C(F)(F)F)[C@H]3[C@@H]1CC[C@@H]2O` (stereo partly drawn) [Fulvestrant]: the efficacy is -14.2%.
The value for `CN[C@@H](C)C(=O)N[C@H](C(=O)N1CCC[C@H]1C(=O)Nc1snnc1-c1ccccc1)C1CCCCC1` [GDC-0152] was -13.4%; that for `C[C@]1(C(=O)N(CCCC(=O)O)Cc2cccc(Cl)c2)CCN1C(=O)c1csc2ccccc12` [GLPG-0974] was -21.2%.
The value for `CC(C)C[C@H](CC(=O)O)C(=O)N[C@@H](Cc1c[nH]c2ccccc12)C(=O)N[C@@H](C)c1ccccc1` [GM-1489] was 10.9%.
With `Nc1ncc(C(=O)NC2CN(C(=O)C3CC3)C2)c2ccc(-c3cccc(F)c3)nc12` [GNE-495], the efficacy is -23.5%.
The value for `CC(=O)N1CCN(c2ccc(NC(=O)Cc3cnc(-c4ccnc(F)c4)c(C)c3)nc2)CC1` [GNF-6231] was -22.2%; that for `C[C@H](NC(=O)Cc1cc(F)cc(F)c1)C(=O)N[C@H](C(=O)OC(C)(C)C)c1ccccc1` [GSI-IX] was 26%.
The value for `CCN(C(=O)c1ccccc1OC)c1cc2c(cc1N1CCNC[C@H]1C)n(C)c(=O)n2C` [GSK9311] was -8.64%.
Turning to `CC[C@H](C)[N]1C=C(C)C2=C1C=C(C=C2C(=O)NC\C3=C(C)\C=C(\C)NC3=O)C4=CC=C(N=C4)N5CCNCC5` [GSK-126], the efficacy was -125%.
For the molecule `CN1C(=O)[C@@H](NC(=O)c2cc(Cc3ccccc3)on2)COc2ccccc21` [GSK-481], the efficacy was -10.3%.
The value for `CC(C)(C)[S+](=O)([O-])c1ccc2nccc(Nc3n[nH]c4ccc(F)cc34)c2c1` [GSK-583] was -39.1%; that for `COc1c(C)cc(NC(=O)c2nn(Cc3ccc(F)cc3)c3c2CN(C(=O)c2ccc[nH]2)C[C@]3(C)C(N)=O)cc1C` [GSK-864] was -35.1%.
In the case of `CC(C)[S+](=O)([O-])c1ccc2nccc(Nc3ccc4scnc4c3)c2c1` [GSK-872], the efficacy is -37.8%.
As for `CC(C)(C)C(=O)N1\N=C/C[C@H]1C2=CC=CC=C2` [GSK-963], the efficacy is -9.61%.
The result for `CCCOc1ccn2c(C(C)=O)cc(-c3ccccc3[S+](C)(=O)[O-])c2c1` [GSK-2801] reads -30.1%; that for `O=C(O)Cc1cccc(OCCCN(Cc2cccc(C(F)(F)F)c2Cl)CC(c2ccccc2)c2ccccc2)c1` [GSK-3965], -71.2%; that for `COc1ccccc1C(=O)Nc1cc2c(cc1N1CCCCC1)n(C)c(=O)n2C` [GSK-5959], -9.01%.
The value for `O=C(O)CCNc1cc(N2CCc3ccccc3CC2)nc(-c2cccnc2)n1` [GSK-J2] was -21.7%; that for `Cc1cc(SCc2sc(-c3ccc(C(F)(F)F)c(F)c3)nc2C)ccc1OCC(=O)O` [GW-0742] was -21%; that for `CN(CCOc1ccc(C[C@H](Nc2ccccc2C(=O)c2ccccc2)C(=O)O)cc1)c1ccccn1` [GW-1929] was -7.57%.
Take `CC(C)c1onc(-c2c(Cl)cccc2Cl)c1COc1ccc(/C=C/c2cccc(C(=O)O)c2)c(Cl)c1` [GW-4064X]: the efficacy was -29.7%.
As for `O=C1Nc2ccc(I)cc2/C1=C/c1cc(Br)c(O)c(Br)c1` [GW-5074], the efficacy is -38%.
On to `CCC(=O)NC[C@H](Cc1ccc(OCCc2nc(-c3ccccc3)oc2C)cc1)N/C(C)=C\C(=O)c1ccc(C(F)(F)F)cc1` [GW-6471], for which the efficacy is -30.2%.
Consider `CC(C)(Sc1ccc(CCN(CCCCC2CCCCC2)C(=O)NC2CCCCC2)cc1)C(=O)O` [GW-7647], for which the efficacy is -45.1%.
Take `O=C(O)CCc1ccc(NCc2cccc(Oc3ccccc3)c2)cc1` [GW-9508]: the efficacy was -8.05%.
As for `CCOC(=O)c1ccc(OC(=O)CCCCCNC(=N)N)cc1` [Gabexate mesilate], the efficacy is 7.86%.
The value for `Cc1cccc(-c2nn3c(c2-c2ccnc4ccc(C(N)=O)cc24)CCC3)n1` [Galunisertib] was 12.5%; that for `N\C1=N\C2=C(N=C[N]2COC(CO)CO)C(=O)N1` [Ganciclovir] was -18.1%; that for `COc1cc2ncnc(Nc3ccc(F)c(Cl)c3)c2cc1OCCCN1CCOCC1` [Gefitinib] was -15.4%.
The value for `COC1=C2C[C@H](C)C[C@H](OC)[C@H](O)[C@@H](C)/C=C(/C)[C@H](OC(N)=O)[C@@H](OC)/C=C\C=C(\C)C(=O)NC(=CC1=O)C2=O` [Geldanamycin] was -57.3%.
The value for `Cc1ccc(C)c(OCCCC(C)(C)C(=O)O)c1` [Gemfibrozil] was -13.1%; that for `OC1=CC=C(C=C1)\C2=C\OC3=C(C(=CC(=C3)O)O)C2=O` [Genistein] was -33.2%.
